Data on one molecule can be found in patent US7901724B2, “Fermented tea obtained by tea-rolling processing of tea material leaves and loquat leaves, and composition having extract contained in fermented tea as active component” (Nagasaki Prefectural Government, priority 2004, dated 2011).

For this experiment, the system named is normal rat. The experiment is described as follows: Maltose load in normal rat, single administration, blood glucose levels. Format: in vivo. To be noted: maltose 2 g/kg load. The method, then:
Maltose was administered to a normal rat at a dosage of 2 g per kg of the body weight. Subsequently, an extract obtained by extracting the fermented tea obtained by means of tea-rolling processing with hot water was administered to the rat at a dosage of 20 mg per kg of the body weight, or a product was administered to the rat at a dosage of 20 mg per kg of the body weight, in which a plant in Sri Lanka, one of the materials having high activities with the highest level among the materials reported heretofore (J. Agri. Food. Chem. 2004) was extracted with methanol, then concentrated, and then freeze-dried, followed by dissolving the freeze-dried product in water. 30 minutes, 60 minutes, and 120 minutes after the administration, the blood glucose levels were measured.
As an indication of 50% reduction of the elevation of blood glucose levels, EC50 is employed.
Maltose was administrated to a normal rat at a dosage of 2 g per kg of the body weight. Subsequently, an extract obtained by extracting the fermented tea obtained by means of tea-rolling processing with hot water was administered at a dosage of 10 mg per kg of the body weight or 20 mg per kg of the body weight. A decreasing rate of the total blood glucose level area up to 120 minutes after carrying out carbohydrate load (AUCO-120) is shown in Table 6.

As for `C[C@H]1O[C@H](O[C@H]2[C@H](O)[C@@H](O)[C@@H](O[C@H]3[C@H](O)[C@@H](O)C(O)O[C@@H]3CO)O[C@@H]2CO)[C@H](O)[C@@H](O)[C@@H]1N[C@H]1C=C(CO)[C@@H](O)[C@H](O)[C@H]1O` (stereo partly shown) [Acarbose, acarbose], the “EC50 (50% reduction of the elevation of blood glucose levels)” value amounted to 3.1 mg/kg.
